Data set [1] concerns testicular tumors. Set-up: method as in doi:10.2174/2210298102666220404102936. The conditions noted are these: cited from earlier work.
The nature of data set [2]: Release of pyridine ligand from synthesized complex followed by 1H NMR. The data set is classed as physicochemical. From the text:
The rate of the release of the monodentate ligand from the synthesized mixed-ligand complex is also of interest. Although a mixed-ligand complex with low stability should release its monodentate ligand easily, kinetic inertness has a major effect on reaching the equilibrium state. In contrast to their non-organometallic octahedral counterparts, half-sandwich Ru(II) and Rh(III) complexes have faster ligand exchange reactions.

The nature of data set [3]: Stability of mixed-ligand complex in methanol (1H NMR in CD3OD). It is filed as physicochemical. The source says: ^1H NMR (CD3OD, ppm, 500 MHz, standard: δ 3.31 (solvent residual peak)): δ 9.76 (dd, J = 5.2 Hz, 0.87 Hz, 2H, phen-H^2,9), δ 8.99 (dd, J = 8.3 Hz, 1.2 Hz, 2H, phen-H^4,7), δ 8.49 (d, J = 5.2 Hz, 2H, Py-H^2,6), δ 8.40 (dd, J = 8.2 Hz, 5.2 Hz, 2H, phen-H^3,8), δ 8.25 (s, 2H, phen-H^5,6), δ 7.91 (tt, J = 7.7 Hz, 1.4 Hz, 1H, Py-H^4), δ 7.46 (t, J = 7.1 Hz, 2H, Py-H^3,5), δ 1.75 (s, 15H, Cp*-H^methyl). Deuteration of Cp* is visible and highlighted in the spectrum in Figure S9. A small amount (<5%) of dissociated complex is visible in equilibrium with the complex, indicating the low stability of the mixed-ligand complex even in methanol.

Data set [4] can be described thus: Kinetics of mixed-ligand complex formation followed by UV-vis. It is filed as physicochemical. The conditions noted are these: complex:1-methylimidazole 1:2, pH 7.4 (phen, Figure 2) or 5.94 (en, Figure S23). The protocol:
Firstly, the reactions were followed by UV-vis spectrometry, and significant changes in the charge transfer bands were observed. Based on these preliminary measurements, the waiting time needed prior to measurement was determined. Generally, the reaction was faster for the RhCp* complexes than for the Ru(p-cym) analogs. […] The [Ru(p-cym)(en/phen)(H2O)]^2+ complexes reached chemical equilibrium within only hours, while the reaction between 1-methylimidazole and [RhCp*(phen)(H2O)]^2+ (Figure 2) or [RhCp*(en)(H2O)]^2+ (Figure S23) was completed within 90 min. However, the fractions of the mixed-ligand complexes cannot be determined from these spectral changes in the chemical equilibrium; thus, further experiments were carried out to determine the formation constants.
Figure 2 (a) Time-dependent UV-vis spectra of the c([RhCp*(phen)(H2O)]^2+):c(1-methylimidazole) = 1:2 mixture under physiological conditions (pH = 7.4 (PBS’ buffer)). (b) Time dependence of the absorbance values at 400 nm. {c([RhCp*(phen)(H2O)]^2+) = 200 μM; c(1-methylimidazole) = 400 μM; pH = 7.40 (PBS’); t = 25 °C; ℓ = 1 cm}.

Data set [5] in a line: Proton dissociation constants of the coordinated water in [M(arene)(N,N/O)(H2O)]2+/+ complexes (UV-vis titration). To be noted: I = 0.10 M (KCl); t = 25.0 °C; UV-vis. The source says: The proton dissociation of the aqua ligand in the [M(arene)(N,N/O)(H2O)]^2+/+ complexes (Scheme 2) results in the inert mixed-hydroxido species (general formula: [M(arene)(N,N/O)(OH)]^+/0).

Data set [6] is described as follows: physchem. The conditions noted are these: water with 0.10 M KCl.
Description: (§1) pH-potentiometric measurements were performed to determine the protonation constants (Kp) of the ligands and the concentration of the stock solutions. These measurements were carried out at 25.0 ± 0.1 °C in water in a pH range between 2.0 and 11.5, titrating with carbonate-free KOH solution (0.10 M). […] A Thermo Scientific 0710A0 benchtop pH meter (Waltham, MA, USA), equipped with a Metrohm combined electrode (type 6.0234.100) and a Metrohm 665 Dosimat burette (Metrohm, Herisau, Switzerland) was used for these measurements. […] The initial volume of the samples was 10.0 mL, and the ligand concentration was 2.0 mM in the samples. Samples were degassed by bubbling purified argon prior to and during the measurements. The computer program Hyperquad2013 [28] was utilized to determine the protonation constants of the ligands and concentration.
(§2) The protonation constants (Kp) were determined by pH-potentiometric and UV-vis spectrophotometric titrations in the presence of 0.1 M KCl (see Table 1 and Figures S21 and S22 for examples).
For data set [7] the following is noted: cited from earlier work.
The conditions of data set [8]: I = 0.10 M (KCl); t = 25.0 °C; pH-potentiometry (benzimidazole: UV-vis).
Description: as §1, §2
Data set [9] can be described thus: Fractions of mixed-ligand complexes at 1:1 ratio at pH 6.0 and 7.4 by 1H NMR (screening of monodentate ligands). It is filed as physicochemical. To be noted: pH 6.0 and 7.4. On the procedure: In the preliminary studies, the co-ordination ability of the monodentate ligands to the [RhCp*(en)(H2O)]^2+, [RhCp*(phen)(H2O)]^2+, and [RhCp*(8HQH-1)(H2O)]^+ complexes was tested (Chart 2). The samples contained the aqua complex and the monodentate ligand in a 1:1 ratio and were buffered at pH = 6.0 and pH = 7.4. For an ideal drug candidate, all of the monodentate ligand would be bound at pH 7.4; thus, the mixed-ligand complex would be present exclusively, which dissociates completely at pH 6.0.
Figure 1 Fractions of the formed mixed-ligand [RhCp*(N,N/O)(N)]^2+/+ complexes at c(complex):c(monodentate ligand) = 1:1 ratio measured at pH = 6.0 (full bars) and 7.4 (checkered bars). Fractions were determined by the integration of the peaks in the ^1H NMR spectra. The percentage values above the columns show the difference in the fractions of the mixed-ligand complex at the two pH values. {c([RhCp*(phen)(H2O)]^2+) = c([RhCp*(en)(H2O)]^2+) = 1 mM; c([RhCp*(8HQH−1)(H2O)]^+) = 500 μM; 10% D2O; pH = 6.0 or 7.4 (PBS’); t = 25.0 °C}. […] The percentages were assigned to (N,N) = en, (N,N) = phen and (N,O) = 8HQH-1 by bar colour only.

For orientation: pKa means the negative logarithm of the acid dissociation constant. Lower therefore signals a stronger acid or weaker base.

Where only a bound is given, the exact number is not on record here.

As for `N.N.[Cl][Pt][Cl]` [Cisplatin], the cure rates result in data set [1] is “above 95%”.
Consider `Cc1c(C)c(C)[c-](C)c1C.NCCN.O=S(=O)([O-])C(F)(F)F.O=S(=O)([O-])C(F)(F)F.[Rh+3].c1ccncc1` [Complex 2], for which the monodentate ligand dissociated in data set [2] (pH 6.0, after 5 min) was ~ 75%. The “released monodentate ligand at chemical equilibrium” value in data set [2] (pH 6.0, after half an hour) is reported as ~ 94%.
As to `Cc1c(C)c(C)[c-](C)c1C.O=S(=O)([O-])C(F)(F)F.O=S(=O)([O-])C(F)(F)F.[Rh+3].c1ccncc1.c1cnc2c(c1)ccc1cccnc12` [Complex 4], the “dissociated complex in equilibrium with the complex” value in data set [3] was below 5%.
For `Cc1c(C)c(C)[c-](C)c1C.NCCN.O.[Rh+3]` [[RhCp*(en)(H2O)]2+], in [4], the “time to completion of the reaction with 1-methylimidazole” value is at most 90 min. In data set [5], the “pKa of the coordinated water molecule” value was 10.6±0.1.
For `Cc1c(C)c(C)[c-](C)c1C.O.[Rh+3].c1cnc2c(c1)ccc1cccnc12` [[RhCp*(phen)(H2O)]2+] the same measures were at most 90 min and 10.05±0.01.
Take `c1ccc2[nH]cnc2c1` [benzimidazole]: the pKa in data set [6] is 5.44 ± 0.01. In [7], the “logKp (= pKa), literature data” value was 5.54 [44].
With `CN` [methylamine], the “logKp (= pKa)” value in [8] turned out to be 10.58 ± 0.03. In [9], the “interaction (co-ordination) with the RhCp* aqua complexes” value is listed as “no interaction was found”. The “logKp (= pKa), literature data” value in data set [7] was 10.51 [47].

The values are drawn from PMC9964319, “Half-Sandwich Rhodium Complexes with Releasable N-Donor Monodentate Ligands: Solution Chemical Properties and the Possibility for Acidosis Activation” (Pharmaceutics, 2023).
